Laboratory results published in BigSolDB 2.1.

Nc1cnc(Br)cn1
solubility (mole fraction)
Conditions	in DMF	in acetone	in ethanol	in ethylene glycol	in isopropanol	in methanol	in n-butanol	in n-propanol	in propylene glycol	in water
278.15 K	0.00849	0.00684	0.00144	0.000694	0.00282	0.000887	0.00541	0.00353	0.00113	1.76e-05
283.15 K	0.00942	0.0076	0.00158	0.000773	0.00308	0.000981	0.00601	0.00392	0.00125	1.93e-05
288.15 K	0.0106	0.00856	0.00174	0.000869	0.0034	0.00108	0.00678	0.00445	0.00139	2.18e-05
293.15 K	0.0119	0.00961	0.00194	0.00097	0.0038	0.00121	0.00757	0.00497	0.00153	2.43e-05
298.15 K	0.0133	0.0108	0.00217	0.00109	0.00429	0.00135	0.00853	0.00563	0.00173	2.73e-05
303.15 K	0.0149	0.012	0.00243	0.00121	0.00477	0.00151	0.00953	0.00625	0.00192	3.08e-05
308.15 K	0.0165	0.0134	0.00272	0.00135	0.00531	0.00167	0.0106	0.00696	0.00216	3.42e-05
313.15 K	0.0185	0.0149	0.00308	0.00149	0.00594	0.00185	0.0118	0.00774	0.00239	3.83e-05
318.15 K	0.0205	0.0165	0.00345	0.00166	0.0066	0.00204	0.0131	0.00858	0.00266	4.27e-05
323.15 K	0.0227	0.0183	0.0039	0.00184	0.00735	0.00225	0.0145	0.0095	0.00294	4.77e-05
